From patent US5922557A, “System for stably expressing a high-affinity camp phosphodiesterase and use thereof” (Merck & Co., Inc., priority 1998, dated 1999)
“Also recorded” adds a separate entry of the source. Like-named read-outs stand apart in the source and are kept apart here.

Assays:
[1] = system: high-affinity rolipram binding site, rat forebrain membranes; settings: cited from earlier work
[2] = system: PKA in CHO-K1 cells stably expressing PDE IVa; assay: Whole-cell cAMP dependent protein kinase (PKA) activity ratio; type: cell-based; settings: CHO-K1; with 1 μM PGI2; read-out: apparent EC50 to activate PKA
Description: PKA activity ratios were determined as the amount of ^32 P transferred to histone F2B in the presence and absence of cAMP as described in Materials and Methods. Data points represent the fractional PKA activation by incubating cells with the indicated concentrations of inhibitor and […]. Experiments were performed in triplicate. n=3 experiments±SD.
CHO-K1 cells were grown and resuspended as described above except that the Hank's buffer was replaced by a solution containing 0.25M sucrose; 10 mM Tris, pH 7.5; and 0.5 mM EDTA. The cells were preincubated and incubated with 1 μM PGI2 and the indicated compounds at room temperature as described above. The incubations were terminated by the addition of 0.05% Triton X-100 (final) and incubating the cells for 5 min on ice. […] This mixture (final volume 220 μl) was incubated in a waterbath for 30 min at 35° C. and terminated by adding 5 ml of ice cold 5% TCA. The precipatated protein was applied to a Whatman GF/B filter under vacuum and the filter was subsequently washed with 3×5 ml ice cold TCA solution. The amount of -32P incorporation was measured by placing the filters in Aquasol and counting in a BECKMAN LSC 5000. Basal cAMP independent protein kinase activity was determined by the inclusion of 1 μM Protein Kinase A Peptide Inhibitor (19) in the reaction mixture. Maximal cAMP protein kinase activity was determined in the presence of 10 μM cAMP. All determinations were performed in triplicate and activity ratios were calculated as the [(kinase activity in the presence of PDE inhibitor minus cAMP independent kinase activity)/(maximal cAMP kinase activity minus cAMP independent kinase activity)]×100.

[3] = system: CHO-K1 cells stably expressing rhPDE IVa; assay: cells; type: cell-based; settings: for effect of preincubation on sensitivity of the enzyme to inhibitors: whole-cell preparation, data not shown
Description: Levels of cAMP were measured in CHO-K1 cells stably expressing PDE IVa enzyme as outlined in Materials and Methods.
CHO-K1 cells were plated at a density of 10^6 cells/175 cm^2 containing complete media with 500 μg/ml hygromycin. The flasks were maintained in an incubator at 37° C. with 5.0% CO2 for 72 hr. The media was changed and the cells were allowed to grow overnight. The cells were washed and dissociated from the plate with PBS containing 0.5 mM EDTA. Cellular cAMP content was measured by centrifuging the cell suspension at 150 g×10 min and resuspending the cells in a Hanks buffered salt solution at a density of 0.2×10^6 cells/ml. The cells were preincubated at room temperature for 15 min and then incubated with 10 μM prostaglandin I2 (PGI2) and the indicated compound for an additional 10 min. Basal cAMP levels were determined by incubating the cells in 0.1% DMSO. The incubations were terminated by the addition of HCl (0.1N final) and the cells measured for cAMP.
Determinations of whole-cell cAMP content were performed by incubating 100 μl reconstituted rabbit anti-succinyl cAMP serum with 100 μl of the whole-cell reaction or known cAMP standard and 30 pmol of 125I-cAMP TME in a […]™ well (300 μl final volume) at room temperature for 18 h. Total cpm (Bo) was determined in the absence of sample or cAMP standard. The reaction mixture was then aspirated out of the well, and individual wells were counted in a BECKMAN LS 6000SC with the window open from 10-999 for 1 min. The data were expressed as %B/Bo=[(standard or sample cpm--non-specific cpm)/(Bo cpm-non-specific cpm)]×100. Non-specific cpm were determined by incubating only the 125I-cAMP TME with assay buffer (50 mM acetate; pH 5.8) in the ScintiStrip™ well. All determinations were performed in triplicate.

[4] = target: T1, recombinant full-length human PDE IVa (rhPDEIVa) (Homo sapiens, UniProt P27815, M723I); assay: Phosphodiesterase Scintillation Proximity Assay, inhibition of soluble rhPDE IVa (100,000×g supernatant of transfected CHO-K1 cells); type: biochemical
T1 construct: a cDNA insert encoding for a full-length human PDE IVa enzyme; made in house; host or cells: CHO-K1 cells, stably transfected (also expressing the prostanoid IP receptor); 100,000xg supernatant of the sonicate
T1 sequence (P27815 whole entry M723I): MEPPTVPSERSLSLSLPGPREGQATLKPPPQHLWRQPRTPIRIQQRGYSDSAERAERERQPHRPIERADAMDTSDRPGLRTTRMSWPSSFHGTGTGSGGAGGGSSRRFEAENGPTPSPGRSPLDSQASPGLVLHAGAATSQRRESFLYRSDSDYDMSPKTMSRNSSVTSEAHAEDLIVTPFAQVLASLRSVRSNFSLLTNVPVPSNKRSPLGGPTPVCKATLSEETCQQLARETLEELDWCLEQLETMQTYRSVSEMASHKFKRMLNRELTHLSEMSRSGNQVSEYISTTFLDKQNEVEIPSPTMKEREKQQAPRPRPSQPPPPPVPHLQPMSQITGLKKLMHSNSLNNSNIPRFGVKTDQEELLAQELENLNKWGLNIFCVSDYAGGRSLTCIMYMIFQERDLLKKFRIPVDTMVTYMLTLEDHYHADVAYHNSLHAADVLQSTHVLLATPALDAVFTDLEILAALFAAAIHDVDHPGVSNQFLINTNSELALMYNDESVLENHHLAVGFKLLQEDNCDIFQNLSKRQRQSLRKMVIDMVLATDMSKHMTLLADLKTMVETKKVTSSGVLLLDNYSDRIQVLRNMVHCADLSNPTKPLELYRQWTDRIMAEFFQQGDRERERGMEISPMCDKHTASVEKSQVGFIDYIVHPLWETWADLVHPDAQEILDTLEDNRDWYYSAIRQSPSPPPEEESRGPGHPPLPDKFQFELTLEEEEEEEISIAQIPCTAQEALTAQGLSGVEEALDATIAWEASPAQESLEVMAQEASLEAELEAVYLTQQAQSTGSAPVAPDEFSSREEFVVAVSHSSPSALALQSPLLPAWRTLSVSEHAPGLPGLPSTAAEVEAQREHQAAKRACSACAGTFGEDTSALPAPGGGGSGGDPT
Description: Inhibition of soluble rhPDEIVa by specific inhibitors was examined at 100 nM substrate. Enzyme activity was determined as described in Materials and Methods using the Amersham SPA beads that specifically bind 5'AMP.
Inhibition of soluble rhPDEIVa by specific inhibitors was examined in the presence of 5 mM to 100 mM MgCl2. Enzyme activity was determined as described in Materials and Methods using the Amersham SPA beads that specifically bind 5'AMP in the presence of […] cAMP substrate.

[5] = target: T1, recombinant full-length human PDE IVa (rhPDEIVa); assay: as above; type: biochemical; settings: broken-cell preparation; data not shown
[6] = Kinetic characterization of PDE IVa enzymes with cAMP as substrate; type: biochemical
Description: PDE IVa activity was assayed in the 100,000×g supernatant obtained from sonicated CHO-K1 cells stably expressing the enzyme. The enzyme activity was assayed in duplicate at substrate concentrations ranging from 0.2 μM to 30 μM using the Amersham SPA beads as described in Materials and Methods. Shown are the saturation kinetics for the enzyme. The inset graph is a double-reciprocal plot of the kinetic data. Average of 3 separate experiments +/- SD .
Panel A. Shown are the saturation kinetics for the enzyme.PDE IVA activity was assayed in the 100,000×g supernatant obtained from sonicated CHO-K1 cells stably expressing the enzyme. The enzyme activity was assayed in duplicate at substrate concentrations ranging from 0.2 mM to 10 mM using the Amersham SPA beads as described in Materials and Methods. Average of 3 separate experiments +/- SEM . Panel B. Double-reciprocal replot of the averaged saturation data.

Molecule: COc1ccc(C2CNC(=O)C2)cc1OC1CCCC1 (racemic) [(±)[3H] rolipram]
- increase in high-affinity binding ([1]; 100 mM NaCl and 1 mM MgCl2): 20 fold
- Bmax ([1]; rat forebrain membranes): 19.3 pmol/g rat forebrain

Molecule: COc1ccc([C@H]2CNC(=O)C2)cc1OC1CCCC1 [(S)-rolipram]
- EC50 [2]: 1000 nM

Molecule: CCCCC[C@H](O)/C=C/[C@@H]1[C@H]2C/C(=C/CCCC(=O)O)O[C@H]2C[C@H]1O [PGI2, prostaglandin I2]
- fold induction at 10 µM ([3]; CHO-K1, 10 min, read-out: increase in basal cAMP content): 2
- activation at 10 µM ([3]; CHO-K1, 10 min, PGI2 alone, read-out: increase in basal cAMP levels): ~50%

Molecule: O=[N+]([O-])c1cccc(-c2cc(Cc3ccncc3)cc3cccnc23)c1 [RS 14203]
- EC50 [2]: 10 nM
- EC50 ([3]; CHO-K1, with 10 μM PGI2 (b116 prints 10 FM), read-out: EC50 for elevating cellular cAMP): 27 nM
- cellular cAMP reached ([3]; with PGI2, from 0.2 pmol cAMP/10^4 cells): 3.6 pmols cAMP/10^4 cells
- IC50 ([4]; 100 nM cAMP substrate, read-out: IC50 for inhibition of soluble PDE IVa activity): 9 nM
- IC50 ([4]; 5 mM MgCl2, read-out: IC50, inhibition of soluble rhPDEIVa): 140 nM
- IC50 ([4]; 100 mM MgCl2, read-out: IC50, inhibition of soluble rhPDEIVa): 0.5 nM
- effect of increased salt / ionic strength on inhibitory potency (IC50) ([4]; increasing MgCl2 or other salt in assay buffer): became more potent; also recorded: salt dependent shift in IC50 from low to high affinity

Molecule: C=C1[C@@H](O)[C@@H]2O[C@]3(CC[C@H](/C=C/[C@@H](C)[C@@H]4CC(C)=C[C@@]5(O[C@H](C[C@@](C)(O)C(=O)O)CC[C@H]5O)O4)O3)CC[C@H]2O[C@@H]1[C@@H](O)C[C@H](C)[C@H]1O[C@@]2(CCCCO2)CC[C@H]1C [okadaic acid]
- effect of preincubation on sensitivity of the enzyme to inhibitors [5]: no effect on the sensitivity of the enzyme to inhibitors
- effect of preincubation on sensitivity of the enzyme to inhibitors [3]: no effect on the sensitivity of the enzyme to inhibitors

Molecule: CO[C@H]([C@H](O)CC(=O)[C@@H](C)[C@@H](O)CC[C@@H](C)[C@@H]1O[C@]2(CC[C@@H](C)[C@H](CC[C@H](C)C(C)=O)O2)CC[C@@H]1C)[C@H](OC(=O)C[C@@H](O)C1=C(C)C(=O)OC1=O)C(C)C [tautomycin]
- effect of preincubation on sensitivity of the enzyme to inhibitors [5]: no effect on the sensitivity of the enzyme to inhibitors
- effect of preincubation on sensitivity of the enzyme to inhibitors [3]: no effect on the sensitivity of the enzyme to inhibitors

B1: PDE IVa: recombinant full-length human PDE IVa enzyme stably expressed in CHO-K1 cells (protein, UniProt P27815 1-886, looked up)
chain: MEPPTVPSERSLSLSLPGPREGQATLKPPPQHLWRQPRTPIRIQQRGYSDSAERAERERQPHRPIERADAMDTSDRPGLRTTRMSWPSSFHGTGTGSGGAGGGSSRRFEAENGPTPSPGRSPLDSQASPGLVLHAGAATSQRRESFLYRSDSDYDMSPKTMSRNSSVTSEAHAEDLIVTPFAQVLASLRSVRSNFSLLTNVPVPSNKRSPLGGPTPVCKATLSEETCQQLARETLEELDWCLEQLETMQTYRSVSEMASHKFKRMLNRELTHLSEMSRSGNQVSEYISTTFLDKQNEVEIPSPTMKEREKQQAPRPRPSQPPPPPVPHLQPMSQITGLKKLMHSNSLNNSNIPRFGVKTDQEELLAQELENLNKWGLNIFCVSDYAGGRSLTCIMYMIFQERDLLKKFRIPVDTMVTYMLTLEDHYHADVAYHNSLHAADVLQSTHVLLATPALDAVFTDLEILAALFAAAIHDVDHPGVSNQFLINTNSELALMYNDESVLENHHLAVGFKLLQEDNCDIFQNLSKRQRQSLRKMVIDMVLATDMSKHMTLLADLKTMVETKKVTSSGVLLLDNYSDRIQVLRNMVHCADLSNPTKPLELYRQWTDRIMAEFFQQGDRERERGMEISPMCDKHTASVEKSQVGFIDYIVHPLWETWADLVHPDAQEILDTLEDNRDWYYSAIRQSPSPPPEEESRGPGHPPLPDKFQFELTLEEEEEEEISMAQIPCTAQEALTAQGLSGVEEALDATIAWEASPAQESLEVMAQEASLEAELEAVYLTQQAQSTGSAPVAPDEFSSREEFVVAVSHSSPSALALQSPLLPAWRTLSVSEHAPGLPGLPSTAAEVEAQREHQAAKRACSACAGTFGEDTSALPAPGGGGSGGDPT
modifications: full-length
notes: recombinant full-length human PDE IVa enzyme stably expressed in CHO-K1 cells
- Vmax ([6]; soluble PDE IVa from CHO-K1 cells): 19.5 nM cAMP hydrolyzed/mg. protein per min
- Km ([6]; soluble PDE IVa from CHO-K1 cells, read-out: Km of the enzyme for cAMP as a substrate): 3.5 µM

B2: FLAG PDE IVA: purified full-length epitope FLAG PDE IVA enzyme (protein, UniProt P27815 1-886, looked up)
chain: MEPPTVPSERSLSLSLPGPREGQATLKPPPQHLWRQPRTPIRIQQRGYSDSAERAERERQPHRPIERADAMDTSDRPGLRTTRMSWPSSFHGTGTGSGGAGGGSSRRFEAENGPTPSPGRSPLDSQASPGLVLHAGAATSQRRESFLYRSDSDYDMSPKTMSRNSSVTSEAHAEDLIVTPFAQVLASLRSVRSNFSLLTNVPVPSNKRSPLGGPTPVCKATLSEETCQQLARETLEELDWCLEQLETMQTYRSVSEMASHKFKRMLNRELTHLSEMSRSGNQVSEYISTTFLDKQNEVEIPSPTMKEREKQQAPRPRPSQPPPPPVPHLQPMSQITGLKKLMHSNSLNNSNIPRFGVKTDQEELLAQELENLNKWGLNIFCVSDYAGGRSLTCIMYMIFQERDLLKKFRIPVDTMVTYMLTLEDHYHADVAYHNSLHAADVLQSTHVLLATPALDAVFTDLEILAALFAAAIHDVDHPGVSNQFLINTNSELALMYNDESVLENHHLAVGFKLLQEDNCDIFQNLSKRQRQSLRKMVIDMVLATDMSKHMTLLADLKTMVETKKVTSSGVLLLDNYSDRIQVLRNMVHCADLSNPTKPLELYRQWTDRIMAEFFQQGDRERERGMEISPMCDKHTASVEKSQVGFIDYIVHPLWETWADLVHPDAQEILDTLEDNRDWYYSAIRQSPSPPPEEESRGPGHPPLPDKFQFELTLEEEEEEEISMAQIPCTAQEALTAQGLSGVEEALDATIAWEASPAQESLEVMAQEASLEAELEAVYLTQQAQSTGSAPVAPDEFSSREEFVVAVSHSSPSALALQSPLLPAWRTLSVSEHAPGLPGLPSTAAEVEAQREHQAAKRACSACAGTFGEDTSALPAPGGGGSGGDPT
modifications: full-length FLAG epitope tag
- Vmax ([6]; 150 mM KCl, 0 mg/ml HSA): 9.7 ± 0.2 μm/mg/min
- Vmax ([6]; 150 mM KCl, 3 mg/ml HSA): 4.8 ± 0 μm/mg/min
- Km ([6]; 150 mM KCl, 3 mg/ml HSA, read-out: Km): 4.8 ± 0.1 µM
